According to patent publication US11427548B2 (Arvinas Operations, Inc., priority 2015, dated 2022):
Where two headings read alike, the source gives them in different places.

Target: T1, Androgen Receptor (Homo sapiens, UniProt P10275)
T1 construct: endogenous in cells; host or cells: VCaP cells
T1 sequence (P10275 1-920): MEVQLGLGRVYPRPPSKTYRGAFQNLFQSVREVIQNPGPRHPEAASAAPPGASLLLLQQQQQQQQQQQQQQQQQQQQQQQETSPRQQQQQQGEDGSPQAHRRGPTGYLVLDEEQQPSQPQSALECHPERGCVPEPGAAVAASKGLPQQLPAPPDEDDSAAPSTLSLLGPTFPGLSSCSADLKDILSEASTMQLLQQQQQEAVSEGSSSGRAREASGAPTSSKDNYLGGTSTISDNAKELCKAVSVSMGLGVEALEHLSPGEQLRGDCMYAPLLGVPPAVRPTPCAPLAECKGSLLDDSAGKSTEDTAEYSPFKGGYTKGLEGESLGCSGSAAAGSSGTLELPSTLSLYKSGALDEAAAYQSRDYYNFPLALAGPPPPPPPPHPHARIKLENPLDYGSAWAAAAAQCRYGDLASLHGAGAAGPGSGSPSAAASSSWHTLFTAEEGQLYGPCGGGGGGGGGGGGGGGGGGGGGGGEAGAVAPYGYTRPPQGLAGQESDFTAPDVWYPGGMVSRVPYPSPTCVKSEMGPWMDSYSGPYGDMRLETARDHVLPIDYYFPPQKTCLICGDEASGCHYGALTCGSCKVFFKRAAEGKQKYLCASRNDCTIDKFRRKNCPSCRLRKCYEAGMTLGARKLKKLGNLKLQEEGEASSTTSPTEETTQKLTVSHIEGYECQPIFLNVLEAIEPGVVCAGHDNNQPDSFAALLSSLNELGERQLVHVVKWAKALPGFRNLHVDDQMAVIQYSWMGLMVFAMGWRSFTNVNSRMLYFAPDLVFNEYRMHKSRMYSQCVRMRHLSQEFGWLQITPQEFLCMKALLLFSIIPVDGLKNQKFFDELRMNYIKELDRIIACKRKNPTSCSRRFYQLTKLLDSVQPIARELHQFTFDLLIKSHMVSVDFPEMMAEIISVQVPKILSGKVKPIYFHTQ
Assay: Androgen Receptor ELISA assay (PathScan AR ELISA) in VCaP cells: AR degradation, Dmax and DC50
Assay type: cell-based
Protocol: 1. Androgen Receptor ELISA Assay.
The protocols used with VCaP cells are described below. The androgen receptor ELISA assay was performed using PathScan AR ELISA (Cell Signaling Catalog #12850) according to the following assay steps:
VCaP cells are seeded at 30,000 cells/well at a volume of 200 μL/well in VCaP assay medium [Phenol red free RPMI (Gibco Cat #11835-030); 5% Charcoal Stripped (Dextran treated) FBS (Omega Scientific, Cat #FB-04); Pen/Strep Life Technologies (Gibco Cat #: 10378-016); 0.1 nM R1881 (Sigma, Cat #R0908) is added upon the start of the assay, not during initial plating of the cells) in Corning 3904 plates. The cells are grown for a minimum of 3 days.
First, cells are dosed with compounds diluted in 0.1% DMSO—use a polypropylene plate according to the following protocol: (1)(i) make 1000× stock plate in DMSO; (ii) 20 mM stock diluted 1/6.7 with DMSO (5 μL+28.3 μL DMSO)=3 mM into row H; (iii) perform serial dilutions in ½ log doses (10 μL of PROTAC+20 μL DMSO) from row H towards row B. Reserve row A for DMSO; (iv) 7 doses total (final concentration in this 1000× plate will be 3 mM, 1 mM, 333 μM, 111 μM, etc). (2)(i) Make 10× stock plate in media; (ii) transfer 2.5 μL of the 1000× stock to a new 10× stock plate (use 12 channel pipet, start at A (DMSO control) work thru H. When 247.5 μL of media is added to this plate, it will serve as a 10× stock; (iii) make media+1 nM R1881 for making 10× stock plate; (iv) add 247.5 μL of media with 1 nM R1881 to each well of the 10× stock plate, mix.
Then 22 μL of 10× stock is added to cells and incubated for 24 h. 1× Cell Signaling Cell lysis buffer is made (Catalogue #9803; comes with the kit)—prepare for 50 μL/well. Keep on ice. Media is aspirated, and 50 μL 1× cell lysis buffer/well is added. The cells are placed on ice for 10 minutes. The solution is mixed and transferred to PCR plate, and centrifuged at 4C for 10 minutes at 4000 rpm.
5 μL is transferred to fresh plate (use immediately or freeze −80 C); 115 μL ELISA Dilutant is added (0.15 ug/ml-0.075 ug/ml; comes with the PathScan ELISA).
Add 100 μL/well AR Elisa; cover and shake, 37 C for 2 hrs; dump, tap, wash 4×200 μL ELISA wash buffer; add 100 μL/well mouse AR detection Ab; cover and shake, 37 C for 1 hr; dump, tap, wash 4×200 μL ELISA wash buffer; add 100 μL/well anti-mouse—HRP conjugated Ab (comes with the kit); cover and shake, 37 C for 30 min; allow TMB reagent to come to room temperature; dump, tap, wash 4×200 μL Elisa wash buffer; tap; add 100 μL TMB, shake 5 min—while watching color. Add the stop reagent when light blue color develops. Add 100 μL Stop solution; shake and read at 450 nm.

[1] = read-out: VCaP DC50; concentration that caused 50% Androgen Receptor degradation, VCaP cells (Table 32)
[2] = VCaP cells; Table 35; read-out: VCaP DC50
[3] = VCaP, VCaP cells; Table 35; read-out: VCaP Dmax (%)
[4] = VCaP cells; Table 36; read-out: VCaP DC50
[5] = VCaP, VCaP cells; Table 36; read-out: VCaP Dmax (%)
[6] = VCaP, highest percentage of Androgen Receptor degradation observed, VCaP cells (Table 32); read-out: VCaP Dmax (%)
[7] = concentration that caused 50% Androgen Receptor degradation, VCaP cells (Table 32); read-out: VCaP DC50

For Cc1ncsc1-c1ccc(CNC(=O)[C@@H]2C[C@@H](O)CN2C(=O)[C@@H](NC(=O)COCCCCOc2ccc(-c3ccc(N4C(=S)N(c5ccc(C#N)c(Cl)c5)C(=O)C4(C)C)c(F)c3)cc2)C(C)(C)C)cc1 [Example 107, (2S,4R)-1-[(2S)-2-{2-[4-(4-{4-[3-(3-chloro-4-cyanophenyl)-5,5-dimethyl-4-oxo-2-sulfanylideneimidazolidin-1-yl]-3-fluorophenyl}phen-oxy)butoxy]acetamido}-3,3-dimethylbutanoyl]-4-hydroxy-N-{[4-(4-methyl-1,3-thiazol-5-yl)phenyl]methyl}pyrrolidine-2-carboxamide], the Dmax (VCaP, read-out: VCaP Dmax (%)) was > 71% and the DC50 [1] was < 50 nM.

Cc1ncsc1-c1ccc([C@H](C)NC(=O)[C@@H]2C[C@@H](O)CN2C(=O)[C@@H](NC(=O)COC[C@@H](O)CCOc2ccc(-c3ccc(N4C(=S)N(c5ccc(C#N)c(C(F)(F)F)c5)C(=O)C4(C)C)cc3)cc2)C(C)(C)C)cc1 [Example 575] was tested, and the Dmax (VCaP, read-out: VCaP Dmax (%)) was > 71% and the DC50 (read-out: VCaP DC50; VCaP cells; Table 35) was < 50 nM.

Cc1ncsc1-c1ccc(CNC(=O)[C@@H]2C[C@@H](O)CN2C(=O)[C@@H](NC(=O)COCCCOCCCCOc2ccc(N3C(=S)N(c4ccc(C#N)c(Cl)c4)C(=O)C3(C)C)cc2F)C(C)(C)C)cc1 [Example 41, (2S,4R)-1-[(2S)-2-{2-[3-(4-{4-[3-(3-chloro-4-cyanophenyl)-5,5-dimethyl-4-oxo-2-sulfanylideneimidazolidin-1-yl]-2-fluorophenoxy}butoxy)propoxy]acetamido}-3,3-dimethylbutanoyl]-4-hydroxy-N-{[4-(4-methyl-1,3-thiazol-5-yl)phenyl]methyl}pyrrolidine-2-carboxamide] was tested, and the Dmax (VCaP, read-out: VCaP Dmax (%)) was > 71% and the DC50 (read-out: VCaP DC50; concentration that caused 50% Androgen Receptor degradation, VCaP cells) was < 50 nM.

For CC(C)(C)[C@H](NC(=O)COCCCCOc1ccc(-c2ccc(N3C(=S)N(c4ccc(C#N)c(C(F)(F)F)c4)C(=O)C3(C)C)cc2)cc1)C(=O)N1C[C@H](O)C[C@H]1C(=O)NCc1ccc(-c2ccn[nH]2)cc1 [Example 122, (2S,4R)-1-[(2S)-2-(2-{4-[4-(4-{3-[4-cyano-3-(trifluoromethyl)phenyl]-5,5-dimethyl-4-oxo-2-sulfanylideneimidazolidin-1-yl}phenyl)phenoxy]butoxy}acetamido)-3,3-dimethylbutanoyl]-4-hydroxy-N-{[4-(1H-pyrazol-5-yl)phenyl]methyl}pyrrolidine-2-carboxamide], the Dmax (VCaP, read-out: VCaP Dmax (%)) was > 71% and the DC50 [1] was < 50 nM.

In the case of CC(C)(C)[C@H](NC(=O)COCCOc1ccc(-c2ccc(C(=O)N[C@H]3C(C)(C)[C@H](Oc4ccc(C#N)c(Cl)c4)C3(C)C)cc2)cc1)C(=O)N1C[C@H](O)C[C@H]1C(=O)NCc1ccc(C#N)cc1 [Example 550], the DC50 [2] is reported as < 50 nM and the Dmax [3] is reported as > 71%.

In the case of Cc1ncsc1-c1ccc([C@H](C)NC(=O)[C@@H]2C[C@@H](O)CN2C(=O)[C@@H](c2ncc(CCCCCNc3ccc(C(=O)N[C@H]4C(C)(C)[C@H](Oc5ccc(C#N)c(Cl)c5)C4(C)C)nc3)n2C)C(C)C)cc1 [Example 691, N-((1r,3r)-3-(3-chloro-4-cyanophenoxy)-2,2,4,4-tetramethylcyclobutyl)-5-((5-(2-((R)-1-((2S,4R)-4-hydroxy-2-(((S)-1-(4-(4-methylthiazol-5-yl)phenyl)ethyl)carbam-oyl)pyrrolidin-1-yl)-3-methyl-1-oxobutan-2-yl)-1-methyl-1H-imidazol-5-yl)pentyl)amino)picolin-amide], the DC50 [4] is reported as > 501 nM and the Dmax [5] is reported as < 25%.

With Cc1ncoc1-c1ccc(CNC(=O)[C@@H]2C[C@@H](O)CN2C(=O)[C@@H](NC(=O)COCCCCCOc2ccc(C(=O)NC3C(C)(C)C(Oc4ccc(C#N)c(Cl)c4)C3(C)C)cc2)C(C)(C)C)cc1 (stereo partly drawn) [Example 152, (2S,4R)-1-[(2S)-3,3-dimethyl-2-(2-{[5-(4-{[trans-3-(3-chloro-4-cyanophenoxy)-2,2,4,4-tetramethylcyclobutyl]carbamoyl}phen-oxy)pentyl]oxy}acetamido)butanoyl]-4-hydroxy-N-{[4-(4-methyl-1,3-oxazol-5-yl)phenyl]methyl}pyrrolidine-2-carboxamide] the Dmax [6] was > 71% and the DC50 [7] was < 50 nM.

With Cc1ncsc1-c1ccc([C@H](C)NC(=O)[C@@H]2C[C@@H](O)CN2C(=O)[C@@H](NC(=O)CN2CCN(CCCc3ccc(C(=O)N[C@H]4C(C)(C)[C@H](Oc5ccc(C#N)c(Cl)c5)C4(C)C)cc3)CC2)C(C)(C)C)cc1 [Example 783, (2S,4R)-1-((S)-2-(2-(4-(3-(4-(((1r,3r)-3-(3-chloro-4-cyanophenoxy)-2,2,4,4-tetramethylcyclobutyl)carbamoyl)phenyl)propyl)piperazin-1-yl)acetamido)-3,3-dimethylbutanoyl)-4-hydroxy-N-((S)-1-(4-(4-methylthiazol-5-yl)phenyl)ethyl)pyrrolidine-2-carboxamide] the DC50 [4] was < 50 nM and the Dmax [5] was > 71%.

For Cc1ncsc1-c1ccc([C@H](C)NC(=O)[C@@H]2C[C@@H](O)CN2C(=O)[C@@H](NC(=O)COCCCCNc2ccc(C(=O)N[C@H]3C(C)(C)[C@H](Oc4ccc(C#N)c(Cl)c4)C3(C)C)cc2)C(C)(C)C)cc1 [Example 177, (2S,4R)-1-[(2S)-3,3-dimethyl-2-(2-{4-[(4-{[trans-3-(3-chloro-4-cyanophenoxy)-2,2,4,4-tetramethylcyclobutyl]carbamoyl}phenyl)amino]butoxy}acetamido)butanoyl]-4-hydroxy-N-[(1S)-1-[4-(4-methyl-1,3-thiazol-5-yl)phenyl]ethyl]pyrrolidine-2-carboxamide], the Dmax [6] was > 71% and the DC50 [7] was < 50 nM.

For C[C@H](NC(=O)[C@@H]1C[C@@H](O)CN1C(=O)[C@@H](NC(=O)COCCCCCNc1ccc(C(=O)N[C@H]2C(C)(C)[C@H](Oc3ccc(C#N)c(Cl)c3)C2(C)C)cc1)C(C)(C)C)c1ccc(-c2c[nH]nn2)cc1 [Example 517], the DC50 [2] was < 50 nM and the Dmax [3] was > 71%.

Cc1ncsc1-c1ccc(CNC(=O)[C@@H]2C[C@@H](O)CN2C(=O)[C@@H](NC(=O)COC[C@H](O)[C@@H](O)COc2ccc(C(=O)N[C@H]3C(C)(C)[C@H](Oc4ccc(C#N)c(Cl)c4)C3(C)C)cc2)C(C)(C)C)cc1 [Example 577] was tested, and the DC50 [2] was < 50 nM and the Dmax [3] was > 71%.
